Test: Human HepG2 cell viability assay in 384 well format
Type: toxicity, cell-based
Set-up: dose 125 nL, time 70.5 hour; concentration not given beside the values
Details: HepG2 cells, read-out: Inhibition

Compound	cytotoxicity at 70.5 h
Cc1cc(-c2cnc(NCc3ccccn3)nc2C(C)C)on1	-11.7%
COc1ccc(CNc2ncc(-c3cc(C)no3)c(C(C)C)n2)cc1	-4.08%
Cc1nn(C)cc1CN1CCc2c(nc(-c3ccccn3)[nH]c2=O)C1	-5.77%
O=C(c1cncs1)N1CCC(c2cnccn2)CC1	-8.41%
CC(=O)N1CCC(Cc2nccnc2-c2c(C)n[nH]c2C)C1 (stereo not drawn)	-8.33%
CC(C)N1CCC(c2nccnc2Nc2ncccn2)CC1	-4.91%
CC(=O)N1CCN(CC(N)=O)CC(COc2ccccc2)C1 (stereo not drawn)	6.55%
COCC(=O)N1CCCC1c1cccc(Cc2ccccc2F)n1 (stereo not drawn)	-1.54%
CS(=O)(=O)N1CCCC(Cc2ccnc3ccncc23)CC1 (stereo not drawn)	-0.73%
CC(C)CC(=O)N1CCN(Cc2cc(-c3ccncc3)nn2C)CC1	-3.33%
COCC(=O)N1CCN(Cc2cc(-c3ccncc3)nn2C)CC1	-3.57%
CCS(=O)(=O)N1CCc2nc(C3CCN(C(=O)C4CC4)C3)nc(O)c2C1 (stereo not drawn)	-1.94%
COc1ccc(-c2cccc(CC3(C(=O)O)CCOCC3)c2)cc1	-4.34%
O=C(NCCN1CCOCC1)Nc1cnc2cc(Cl)ccc2c1O	12.7%
Cc1c(C2CCCN(C(=O)OC(C)(C)C)C2)n2c(nc1=O)CCC2 (stereo not drawn)	-5.64%
O=C(NCCCO)Nc1cnc2cc(Cl)ccc2c1O	-1.44%
O=C(C1CC1)N1CCCC(c2nc(O)cc(-c3ccncc3)n2)C1 (stereo not drawn)	-0.584%
COc1ccccc1CN1CCC(O)(Cn2ccc3ncccc32)CC1	-2.09%
O=c1[nH]c(N2CCOCC2)nc2c1CN(Cc1cccnc1)CC2	0.495%
O=C(CC1CCCCC1)NC1CCCc2nc(N3CCOCC3)ncc21 (stereo not drawn)	0.0844%
Cc1ccc(=O)n(CC2(O)CCN(Cc3cnn(C)c3)CC2)n1	-3.09%

Compound	cytotoxicity at 70.5 h
Cc1ccc(=O)n(CC2(O)CCN(Cc3c(F)cccc3F)CC2)n1	0.803%
O=C(NC1CCCc2nc(N3CCOCC3)ncc21)C1CCCC1 (stereo not drawn)	-4.32%
O=C(Cc1ccsc1)N1CCCC(c2cc(C(F)F)n3ncnc3n2)C1 (stereo not drawn)	14.6%
O=C(O)C1(Cc2cc(-c3ccccc3F)no2)CCOCC1	-10.6%
CC(C)N1CCC(Cc2cncc(-c3ccccc3C(=O)O)n2)C1 (stereo not drawn)	-4.44%
CC(=O)N1CCc2ccccc2C1CC(=O)NCc1nnc(C)o1 (stereo not drawn)	27.7%
Cc1cc(C(=O)NCCSC2CCCC2)no1	-1.92%
CCCc1cc(C(=O)N2CCCN(c3cccnn3)CC2)[nH]n1	-0.666%
CC(C)Cc1cc(C(=O)N2CCCN(c3cccnn3)CC2)[nH]n1	-5.32%
CC1CN(C(=O)c2ccc(C(N)=O)cc2)c2ccc(F)cc2O1 (stereo not drawn)	2.67%
Cc1nccn1-c1ccc(CNS(=O)(=O)N2CCCCC2C)cn1 (stereo not drawn)	-3.35%
CC(C)(NS(C)(=O)=O)C(=O)NCCc1csc2ccccc12	4.98%
COc1cccc(CC(C)NC(=O)NC(C)C)c1 (stereo not drawn)	-2.35%
CCOC(=O)CCNC(=O)c1cccc2ccc(C)nc12	0.845%
COc1ccc(C2CCCN2c2ccnc(C)c2Cl)c(OC)c1 (stereo not drawn)	33.7%
COC(=O)c1ccc(NC(=O)NC2CCc3[nH]ncc3C2)cc1 (stereo not drawn)	1.54%
O=C(Nc1ccc(-c2csnn2)cc1)N1CCCC1	-11.8%
COc1cccc(CC(C)NC(=O)NCCNC(C)=O)c1 (stereo not drawn)	-1.81%
CCC1COCCN1C(=O)CNC(=O)c1ccc2c(c1)CCC2 (stereo not drawn)	37.1%
Cc1cccc2nc(CN3CCCC(Cn4ccnn4)C3)cc(=O)n12 (stereo not drawn)	2.5%
COc1cccc(CC(=O)NCCc2nnc3n2CCCCC3)c1	18.7%

Compound	cytotoxicity at 70.5 h
CNC(=O)C1CCCCN1C(=O)c1csc(-c2ccc(C)o2)n1 (stereo not drawn)	-6.71%
NC(=O)C(NCc1ccc(Cl)s1)c1ccccc1 (stereo not drawn)	-7.49%
CCC(C)NC(=O)CS(=O)(=O)Cc1cc(Cl)ccc1OC (stereo not drawn)	-12%
CCN(Cc1ccco1)C(=O)C1=NN(c2ccccc2)C(=O)CN1	17.6%
CNC(=O)C1CCCCN1C(=O)Cc1csc(-c2ccc(C)o2)n1 (stereo not drawn)	-11.8%
Cc1noc(C)c1CN(C)C(=O)C1CCN(S(N)(=O)=O)CC1	-1.71%
Cc1noc(C)c1CN(C)C(=O)C1CCCCN1S(C)(=O)=O (stereo not drawn)	13.6%
CC(C)(C)n1ncc(C(=O)NCCCC(N)=O)c1C(F)(F)F	-9.38%
N#CCCN(CC1CC1)S(=O)(=O)c1cccc(Cl)c1	-3.31%
O=C(CCNC(=O)C1=Cc2ccccc2OC1)Nc1cccnc1	-6.01%
N#CCCN(CC1CCOC1)S(=O)(=O)c1cccc(Cl)c1 (stereo not drawn)	-5.98%
Cc1noc(C)c1NC(=O)CCn1cc(Br)ccc1=O	-8.23%
Cc1ccc(F)c2c1N(C(=O)Cc1c(C)nn(C)c1C)CCC2	-8.9%
COc1nc(N2CCC(CC(N)=O)CC2)ncc1Br	-8.58%
COc1ccc(CCNc2cc(-c3nc(C)no3)ccn2)cc1OC	-3.44%
CNC(=O)Cc1noc(-c2cc3c(s2)CCC(C)C3)n1 (stereo not drawn)	-3.99%
CC1CCC(N2CCC(NS(=O)(=O)CCCF)CC2)CC1 (stereo not drawn)	7.59%
CNC(=O)Cc1noc(-c2cc3c(s2)CCC(C)(C)C3)n1	-3.09%
CC(C)CCC(=O)N1CCN(c2ncnc3nc(N)ccc23)CC1	-6.9%
Cc1ccc(C(=O)N2CCN(c3ncnc4nc(N)ccc34)CC2)o1	-7.65%
CC(C)CCN1CCN(c2ncnc3nc(N)ccc23)CC1	-2.35%

Compound	cytotoxicity at 70.5 h
Cc1noc(C)c1NC(=O)Cn1cc(Br)ccc1=O	0.532%
Cc1ccc(C(=O)N2CCN(c3ncnc4nc(N)ccc34)CC2)cc1	20.2%
CC(C)OCCC1CCCCN1S(=O)(=O)c1cnn(C)c1 (stereo not drawn)	-4.85%
CC(C)N(C)CCCNC(=O)c1cnn(C(C)(C)C)c1C(F)(F)F	-7.79%
Cc1ccc(F)c2c1CCCN2C(=O)Cc1c(C)nn(C)c1C	-5.29%
COc1cccc(COC(C)C(=O)NCc2nnc3n2CCC3)c1 (stereo not drawn)	-1.81%
N#CCCN(CC1CCOC1)S(=O)(=O)c1c(F)cccc1Cl (stereo not drawn)	-6.61%
CC(C)Cc1noc(CNc2cc3c(cc2Cl)OCCCO3)n1	1.94%
Cc1ncc(CN2CCC(c3ccnn3C)CC2)n1-c1ccccc1	2.82%
CC1CCCN(S(=O)(=O)NCCCn2ccc3ccccc32)C1 (stereo not drawn)	-9.54%
Cn1nccc1C1CCN(Cc2cnn(-c3ccccc3)n2)CC1	20.8%
Cc1noc(C)c1CN1CCN(Cc2nc(C3CC3)no2)CC1	-12.8%
CC(C)CC(=O)NCCn1nc(C2CCNC2)c2cccnc21 (stereo not drawn)	-2.13%
COCCC(=O)NCCn1nc(C2CCNC2)c2cccnc21 (stereo not drawn)	14.1%
Cc1ccc2c(c1)CN(C(=O)c1ccncc1)C(CN(C)C)CO2 (stereo not drawn)	-0.528%
Cc1ccc(CN2CCC(O)(Cn3ccc4ncccc43)CC2)o1	-0.742%
OC1(Cn2ccc3ncccc32)CCN(Cc2ccccc2F)CC1	2.31%
COc1ccc(C(=O)N2Cc3cc(C)ccc3OCC2CN(C)C)cc1 (stereo not drawn)	3.28%
CCn1cncc1CN(Cc1ccc(OC)cc1OC)CC1CCCO1 (stereo not drawn)	-3.49%
Cc1cccnc1[C@]1(O)CC[C@H]2CN(Cc3cccc(Cl)c3Cl)C[C@H]21	-3.29%
